{"source": "patent US9572817B2", "about": "“Use of androgens for vascular regeneration and endothelial repair” (THE HEART RESEARCH INSTITUTE LTD., priority 2008, dated 2017)", "key": {"[1]": {"tested_on": "Male C57B16/J mice", "details": "castrate+DHT male mice, after 7 days; control 0.39±0.03", "excerpt": "(§1) Male C57B16/J mice were either castrated or sham-castrated after reaching sexual maturity (6 weeks). After a period of 10 days, 50% of both castrated and sham-castrated mice received a 1 cm subcutaneous silastic implant containing DHT."}, "[2]": {"tested_on": "HUVECs", "experiment": "EC proliferation (direct counting of cell numbers and MTS Assay)", "format": "cell-based, Human", "protocol": "(§2) The effect of the non-aromatizable androgen dihydrotestosterone was assessed on three key angiogenic processes: endothelial cell (EC) migration, EC proliferation and EC tubulogenesis. Cells were treated with 0, 4, 40 or 400 nM dihydrotestosterone (DHT, a potent androgen) with and without the androgen-receptor antagonist hydroxyflutamide (HF).\nEC proliferation was assessed using two methods: direct counting of cell numbers and the MTS Assay. HUVECs were seeded at a density of 1×10^4 cells/ml (12 well plates for counting, 96 well plates for MTS assay) in endothelial growth media in the presence of varying doses DHT±Hydroxyflutamide (HF). After 48 h, cells were either harvested from 12 well plates and counted or incubated with MTS reagent in the 96 well plates with absorbance measured subsequently at 490 nm measured."}, "[3]": {"tested_on": "HUVECs", "experiment": "EC tubulogenesis (co-culture assay of fibroblasts and ECs)", "format": "cell-based, Human", "details": "for EC tubulogenesis vs. 100% control value: donor cells; for tubule formation vs. 100% control value: male EC, chronic exposure (72 h)", "protocol": "The effect of the non-aromatizable androgen dihydrotestosterone was assessed on three key angiogenic processes: endothelial cell (EC) migration, EC proliferation and EC tubulogenesis.\nCo-cultures were grown in the presence of DHT±Hydroxyflutamide (HF). After 72 h, co-cultures were assessed using immunohistochemistry for EC specific markers and image analysis software."}, "[4]": {"tested_on": "Human Umbilical Endothelial Cells (HUVEC)", "experiment": "EC migration (scratch assay and boyden chamber assay)", "format": "cell-based", "protocol": "as §2\nEC migration was assessed via a scratch assay and boyden chamber assay. Human Umbilical Endothelial Cells (HUVEC) monolayers were grown in the presence of varying doses of DHT±Hydroxyflutamide (HF), and either scratched or placed on top of permeable membranes. EC migration across the culture surface or through the membranes was assessed at 24 h and 6 h respectively via light and fluorescence microscopy respectively."}, "[5]": {"tested_on": "Male C57B16/J mice", "details": "castrate+DHT", "excerpt": "as §1\nMononuclear cells were harvested from the spleens and bone marrow of all animals and assessed via cell culture and flow cytometry. Cells were and stained with fluorescein isothiocyanate-lectin and/or 1,1(-dioctadecyl-3,3,3(,3(-tetramethylindocarbocyanine (DiI)-labelled, acetylated low-density lipoprotein (Vasa M, et al. Number and migratory activity of circulating endothelial progenitor cells inversely correlate with risk factors for coronary artery disease. Circ Res. 2001; 89:e1-e7)."}, "[6]": {"details": "intramuscular injection; cited from earlier work"}}, "note": "Where two headings read alike, the source gives them in different places.", "data": [{"smiles": "C[C@]12CCC(=O)C[C@@H]1CC[C@@H]1[C@@H]2CC[C@]2(C)[C@@H](O)CC[C@@H]12", "note": "[DHT, 5α-dihydrotestosterone]", "values": [{"measurement": "Laser Doppler Perfusion Index (LDPI) ischemic/non-ischemic ratio", "setting": "[1]", "result": "0.6±0.06"}, {"measurement": "EC proliferation vs. 100% control value", "setting": "[2]; donor cells, DHT 4 nM", "result": "92±5", "unit": "%"}, {"measurement": "EC proliferation vs. 100% control value", "setting": "[2]; donor cells, DHT 40 nM", "result": "92±3", "unit": "%"}, {"measurement": "EC proliferation vs. 100% control value", "setting": "[2]; donor cells, DHT 400 nM", "result": "89±6", "unit": "%"}, {"measurement": "EC proliferation vs. 100% control value", "setting": "[2]; male EC, DHT 4 nM, after 48 h", "result": "112±8", "unit": "%"}, {"measurement": "EC proliferation vs. 100% control value", "setting": "[2]; male EC, DHT 40 nM, after 48 h", "result": "118±5", "unit": "%"}, {"measurement": "EC proliferation vs. 100% control value", "setting": "[2]; male EC, DHT 400 nM, after 48 h", "result": "127±4", "unit": "%"}, {"measurement": "EC tubulogenesis vs. 100% control value", "setting": "[3]; DHT 4 nM", "result": "92±3", "unit": "%"}, {"measurement": "EC tubulogenesis vs. 100% control value", "setting": "[3]; DHT 40 nM", "result": "90±3", "unit": "%"}, {"measurement": "EC tubulogenesis vs. 100% control value", "setting": "[3]; DHT 400 nM", "result": "92±3", "unit": "%"}, {"measurement": "tubule formation vs. 100% control value", "setting": "[3]; DHT 4 nM", "result": "115±7", "unit": "%"}, {"measurement": "tubule formation vs. 100% control value", "setting": "[3]; DHT 40 nM", "result": "137±5", "unit": "%"}, {"measurement": "tubule formation vs. 100% control value", "setting": "[3]; DHT 400 nM", "result": "157±6", "unit": "%"}, {"measurement": "EC migration vs. 100% control value", "setting": "[4]; donor cells, DHT 4 nM", "result": "90±5", "unit": "%"}, {"measurement": "EC migration vs. 100% control value", "setting": "[4]; donor cells, DHT 40 nM", "result": "96±5", "unit": "%"}, {"measurement": "EC migration vs. 100% control value", "setting": "[4]; donor cells, DHT 400 nM", "result": "93±8", "unit": "%"}, {"measurement": "EC migration vs. 100% control value", "setting": "[4]; male EC, DHT 4 nM, after 24 h", "result": "138±7", "unit": "%"}, {"measurement": "EC migration vs. 100% control value", "setting": "[4]; male EC, DHT 40 nM, after 24 h", "result": "280±23", "unit": "%"}, {"measurement": "EC migration vs. 100% control value", "setting": "[4]; male EC, DHT 400 nM, after 24 h", "result": "306±32", "unit": "%"}, {"measurement": "spleen angiogenic cells", "setting": "[5]; absence of ischaemia, control 15.4±1, castrated 10.3±0.9", "result": "10±0.9 Angiogenic cells/×200 field"}, {"measurement": "spleen angiogenic cells", "setting": "[5]; presence of ischaemia, control 22±1.7, castrated 16±0.8", "result": "26±1.3 Angiogenic cells/×200 field"}, {"measurement": "bone marrow angiogenic cells", "setting": "[5]; presence of ischaemia, control 60±2.4, castrate 26±1.7", "result": "36±3 Angiogenic cells/×200 field"}]}, {"smiles": "CCCCCCC(=O)O[C@H]1CC[C@H]2[C@@H]3CCC4=CC(=O)CC[C@]4(C)[C@H]3CC[C@]12C", "note": "[Testosterone enanthate]", "values": [{"measurement": "time to peak serum testosterone levels after administration", "setting": "[6]", "result": 24, "unit": "h"}]}]}
